Data as given in patent US20240117385A1, “ENZYMES OF LUCIFERIN BIOSYNTHESIS AND USE THEREOF” (LIGHT BIO, INC., priority 2018, published 2024).

Experiments:
Danio rerio larvae = test: Bioluminescence of transgenic Danio rerio larvae after hispidin injection; format: in vivo; details: hispidin solution intravenously injected
Excerpt: Transgenic fish Danio redo, comprising gene of Neonothopanus nambi hispidin hydroxylase were created according to the technique described in [Hisano et al., Sci Rep., 2015, 5:8841]. The technique includes expression of guide RNA and Cas9 nuclease for making a breakpoint in the region homologous to the guide RNA sequence. For the purpose of development of transgenic animals there were ordered synthetic DNA fragments comprising guide RNA sequences from pX330 plasmid, Addgene #42230 and mRNA of Cas9 nuclease under control of bacteriophage polymerase T7 promoter. The obtained fragments were used for transcription in vitro by means of reagents from MAXIscript T7 kit (Life Technologies, USA), and synthesized RNA was purified by means of DNA isolation kit (Evrogen, Russia).
Coding sequence of Neonothopanus nambi hispidin hydroxylase floxed by 50-nucleotide sequences from krtt1c19e Danio rerio gene, described in [Hisano et al., Sci Rep., 2015, 5:8841], was obtained synthetically and cloned into pEGFP/C1 plasmid base comprising pUC origin and kanamycin resistance cassette.
Hispidin solution was intravenously injected into Danio rerio larvae for recording bioluminescent signal according to the technique described in [Cosentino et al., J Vis Exp. 2010; (42): 2079]. Bioluminescence was recorded by means of IVIS Spectrum In Vivo Imaging System (Perkin Elmer). […]

[1] = tested on: Physcomitrella patens moss; test: Bioluminescence of transgenic moss gametophytes soaked in hispidin; format: in vivo; details: hispidin 900 μg/ml in BCD medium
Excerpt: Coding sequences of Neonothopanus nambi hispidin hydroxylase and luciferase were optimized for expression in Physcomitrella patens moss cells. Then, in silico there was created an expression cassette comprising promoter of rice aktI gene, human cytomegalovirus 5′-untranslated region coding hispidin hydroxylase sequence optimized for expression in plant cells (SEQ ID NO 103), terminating codon, Agrobacterium osc gene terminator sequence, rice ubiquitin promoter, coding sequence of Neonothopanus nambi luciferase (SEQ ID NO 112) optimized for expression in moss cells, Agrobacterium tumefaciens nos gene terminator.
The obtained sequence was synthesized in such a way, that all said fragments appeared to be operatively cross-linked to each other, and cloned by Gibson assembly technique [Gibson et al., Nat Methods, 2009, 6:343-5] into expression vector pLand #1 (Institut Jean-Pierre Bourgin, France), between DNA fragments coincident with locus of Physcomitrella patens moss genomic DNA between sequences of highly expressed moss genes Pp3c16_6440 V3.1 and Pp3c16_6460 V3.1. The vector pLand #1 also comprised a guide RNA (sgRNA) sequence for Cas9 nuclease, complementary to the region of the same DNA locus. […]
The obtained moss gametophytes were soaked in BCD medium comprising hispidin at concentration of 900 μg/ml, and analyzed by means of IVIS Spectrum In Vivo Imaging System (Perkin Elmer).

## O=c1cc(O)cc(/C=C/c2ccc(O)c(O)c2)o1 [hispidin, (E)-6-(3,4-dihydroxystyryl)-4-hydroxy-2H-pyran-2-one]
Danio rerio larvae
  bioluminescence intensity exceeding the signal from wild-type fish: minimum by two orders of magnitude
[1]
  bioluminescence intensity exceeding the signal of control plants expressing luciferase only: minimum by two orders of magnitude
